Experimental data published in patent US20040248913A1, “(Pyridinyl and pyrimidyl) trienoic acid derivatives as retinoid x receptor modulators” (priority 2001, published 2004).

Target: T1, RXRα:PPARγ heterodimer (Homo sapiens, UniProt P19793)
T1 construct: expressed in transfected cells; host or cells: CV-1 cells
T1 sequence (P19793 1-462): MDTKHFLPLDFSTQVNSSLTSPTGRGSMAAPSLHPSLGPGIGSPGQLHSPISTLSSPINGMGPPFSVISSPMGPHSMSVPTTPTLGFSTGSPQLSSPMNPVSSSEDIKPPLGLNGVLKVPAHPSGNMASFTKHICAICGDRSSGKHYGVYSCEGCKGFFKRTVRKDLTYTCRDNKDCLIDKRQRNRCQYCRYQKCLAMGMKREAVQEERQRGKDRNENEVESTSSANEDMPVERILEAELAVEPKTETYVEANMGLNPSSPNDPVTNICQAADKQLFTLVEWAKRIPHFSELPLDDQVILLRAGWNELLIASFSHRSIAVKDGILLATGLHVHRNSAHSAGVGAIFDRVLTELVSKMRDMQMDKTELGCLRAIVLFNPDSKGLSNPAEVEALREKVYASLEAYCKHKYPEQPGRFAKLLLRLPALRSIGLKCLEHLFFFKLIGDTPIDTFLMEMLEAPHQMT
T1 sequence (P37231 1-505 partner): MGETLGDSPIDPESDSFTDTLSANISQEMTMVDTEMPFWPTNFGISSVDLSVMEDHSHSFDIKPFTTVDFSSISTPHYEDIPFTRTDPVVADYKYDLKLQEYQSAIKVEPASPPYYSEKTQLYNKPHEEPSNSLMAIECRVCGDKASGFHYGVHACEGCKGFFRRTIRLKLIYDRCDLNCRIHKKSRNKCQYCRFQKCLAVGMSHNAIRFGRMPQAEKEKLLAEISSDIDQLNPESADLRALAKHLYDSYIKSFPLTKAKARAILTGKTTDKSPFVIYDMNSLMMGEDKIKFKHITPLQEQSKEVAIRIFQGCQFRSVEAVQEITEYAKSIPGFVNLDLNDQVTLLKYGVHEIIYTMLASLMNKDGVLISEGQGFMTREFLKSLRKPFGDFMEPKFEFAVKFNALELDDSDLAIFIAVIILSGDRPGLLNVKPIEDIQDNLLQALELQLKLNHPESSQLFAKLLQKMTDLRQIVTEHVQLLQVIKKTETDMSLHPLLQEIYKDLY
Assay: RXR:PPARγ heterodimer cotransfection assay in CV-1 cells
Format: cell-based
Conditions: for Synergy Efficacy (%): maximal response in presence of 100 nM BRL49653 relative to response of BRL49653 alone; for Agonist Efficacy (%): maximal response relative to response of the thiazolidinedione BRL49653
Text: In the co-transfection assay, cloned cDNA for one or more IRs (e.g., human RARα, RXRα, or PPARγ), alone or in combination (i.e. for heterodimer assays) under the control of a constitutive promoter (e.g., the SV 40, RSV or CMV promoter) is introduced by transfection (a procedure to introduce exogenous genes into cells) into a background cell substantially devoid of endogenous IRs. These introduced gene(s) direct the recipient cells to make the IR protein(s) of interest. A further gene is also introduced (co-transfected) into the same cells in conjunction with the IR gene(s). This further gene, comprising the cDNA for a reporter protein, such as firefly luciferase (LUC), controlled by an appropriate hormone responsive promoter containing a hormone response element (HRE). This reporter plasmid functions as a reporter for the transcriptional-modulating activity of the target IR(s). Thus, the reporter acts as a surrogate for the products (mRNA then protein) normally expressed by a gene under control of the target receptor(s) and their native hormone(s).
The compounds of the present invention were further tested for activity on RXR heterodimers with RARα, RARγ or PPARγ utilizing the cotransfection assay in CV-1 cells as described in Example 6A. The RXR:RAR heterodimer cotransfection assays utilized the following expression plasmids and reporter plasmid: pRShRARα (10 ng/well, Giguere et al., Nature, 330:624 (1987) the disclosure of which is herein incorporated by reference) or pRShRARγ (10 ng/well, Ishikawa et al., Mol. Endocrin., 4:837 (1990) the disclosure of which is herein incorporated by reference) with Δ-MTV-LUC (50 ng/well, Hollenberg and Evans, Cell, 55:899 (1988), the disclosure of which is herein incorporated by reference) containing an RARE which is referred to as two copies of the TRE-palindromic response element described in Umesono et al., Nature, 336:262 (1988), the disclosure of which is herein incorporated by reference. For the RSR:PPARγ heterodimer cotransfection assay, the RXRα receptor expression plasmid, pRShRXRα (10 ng/well), was cotrasfected with the PPARγ expression plasmid, pCMVhPPARγ (10 ng/well), and a reporter plasmid containing three copies of a PPARγ response element (pPREA3-tk-LUC, 50 ng/well; Mukherjee et al., Journ. Biol. Chem., 272:8071-8076 (1997) and references cited therein, the disclosures of which are herein incorporated by reference).
Cotransfections were performed as described in Example 6A. […] Antagonist efficacy and IC50 values were determined as in Example 6A.
Compounds of the present invention were also tested for the ability to synergize with an RAR or PPARγ agonist in the context of an RXR heterodimer. For these assays the compounds were added to the cells with a fixed concentration of TTNPB (1×10^−9 M) for RXR:RAR heterodimer assay or BRL 49633 (1×10^−7 M) for the RXR:PPARγ heterodimer assay. Efficacy of the compounds of the present invention in the agonist and synergy assays was calculated as the maximum response obtained over the range of the dose response curve relative to the maximum response obtained by the reference agonist. Antagonist efficacy was determined as a function (%) of maximal inhibition.
Kliewer et al., Nature 358:771-774 (1992). To examine the effects of the compounds of the present invention on the transcriptional properties of the RXR:PPARγ, a heterodimer cotransfection assay as described above was employed.

Row | Structure (SMILES) | RXR:PPARγ agonist activity alone (in words) (alone) | RXR:PPARγ activity in combination with the PPARγ ligand (in words) (in combination with the PPARγ ligand) | Synergy Efficacy (%) | Agonist Efficacy (%)
1 | CCCCOc1c(\C(C)=C/C=C/C(C)=C/C(=O)O)cc(C(C)C)nc1C(C)C [Example 1, 7-(3-Butoxy-2,6-diisopropyl-pyridin-4-yl)-3-methyl-octa-2(E),4(E),6(Z)-trienoic Acid] | partial agonists | stronger activity | 25 | 11
2 | CCCOc1c(\C(C)=C/C=C/C(C)=C/C(=O)O)cc(C(C)C)nc1C(C)C [Example 2, 7-(2,6-Diisopropyl-3-propoxy-pyridin-4-yl)-3-methyl-octa-2(E),4(E),6(Z)-trienoic Acid] | – | – | 150 | 32
3 | CCOc1c(\C(C)=C/C=C/C(C)=C/C(=O)O)cc(C(C)C)nc1C(C)C [Example 3, 7-(2,6-Diisopropyl-3-ethoxy-pyridin-4-yl)-3-methyl-octa-2(E),4(E),6(Z)-trienoic acid] | – | – | 182 | 42
4 | C/C(=C/C=C/C(C)=C/C(=O)O)c1cc(C(C)C)nc(C(C)C)c1OCC(F)F [Example 4, 7-[3-(2,2-Difluoro-ethoxy)-2,6-diisopropyl-pyridin-4-yl]-3-methyl-octa-2(E),4(E),6(Z)-trienoic acid] | – | – | 233 | 53
5 | C/C(=C/C=C/C(C)=C/C(=O)O)c1cc(C(C)C)nc(C(C)C)c1OCC(F)(F)F [Example 5, 7-[2,6-Diisopropyl-3-(2,2,2-trifluoro-ethoxy)-pyridin-4-yl]-3-methyl-octa-2(E),4(E),6(Z)-trienoic acid] | – | – | 107 | 55
